According to patent US4256748A, “Imidazo[2,1-b]quinazolin-2(3H)-ones and pharmaceutical compositions for treatment and prophylaxis of cardiac insufficiency and cardiac failure” (Hoffmann-La Roche Inc., priority 1977, dated 1981):
Counter-ions that a name gives are not always drawn.

Columns and labels:
[1] = system: blood platelet aggregation; experiment: Collagen-induced blood platelet aggregation, human plasma (aggregometer method of BORN); format: cell-based; conditions: 10 min, 37° C., maximum aggregation velocity, read-out: EC 50, collagen-induced blood platelet aggregation, human plasma
Method: The maximum aggregation velocity was taken as the test parameter and the effective concentration (EC50) was ascertained from dosage-activity curves. Human plasma was obtained by centifugation from venous blood treated with citrate (10.6 mM). 0.18 ml. of plasma was treated with 10 μl of an aqueous suspension of the test substance and the mixture was incubated at 37° C. for 10 minutes, whereupon the aggregation was initiated by the addition of 10 μl of collagen-fibril suspension. |Collagen- and ADP-induced blood platelet aggregation

[2] = system: conscious sheepdogs; experiment: Positive inotropic activity and heart frequency after oral administration to conscious sheepdogs; format: in vivo
Method: The positive inotropic activity was measured after the oral administration of a test substance to conscious sheepdogs. For this purpose, the animals are provided with an implanted pressure-telemetry system, so that the pressure receiver is fixed in the left ventricle. The left ventricular pressure is sent from the animal via the implanted radio transmitter and received via a suitable antenna and receiver system, demodulated and amplified. By differentiation of the ascending side of the left ventricular pressure (LVP), the maximum pressure increase rate (dLVP/dtmax) which represents the contractility parameter is calculated. Simultaneously, the heart frequency is recorded via a cardiotachograph. Under the heading inotropy in Table II, the percentage variation (Δ%) of dLVP/dtmax and the duration of activity in minutes (min) are indicated. Under the heading tachycardia in Table II, the percentage variations of the heart frequency (Δ%) after administration of the test substance and the duration of activity in minutes (min) are indicated.

[3] = system: blood platelet aggregation; experiment: ADP-induced blood platelet aggregation, rabbit plasma (aggregometer method of BORN); format: cell-based; conditions: Oryctolagus cuniculus, 1 min, 37° C., 1 minute, maximum aggregation velocity, read-out: EC 50, ADP-induced blood platelet aggregation, rabbit plasma
Method: (§1) The maximum aggregation velocity was taken as the test parameter and the effective concentration (EC50) was ascertained from dosage-activity curves. Rabbit plasma was obtained by centrifugation from arterial blood treated with citrate (9 mM). 1 ml. of plasma was treated with 10 μl of test solution and the mixture was incubated at 37° C. for 1 minute, whereupon 8 μl of collagen-fibril suspension or 10 μl. of adenosine diphosphate (ADP) in 10^-4 N sodium chloride solution were added. Plasma incubated with dimethylsulfoxide served as the control. |Collagen- and ADP-induced blood platelet aggregation

[4] = system: blood platelet aggregation; experiment: Collagen-induced blood platelet aggregation, rabbit plasma (aggregometer method of BORN); format: cell-based; conditions: Oryctolagus cuniculus, 1 min, 37° C., 1 minute, maximum aggregation velocity, read-out: EC 50, collagen-induced blood platelet aggregation, rabbit plasma
Method: as §1

Row | SMILES | EC50 [1] [µM] | Heart frequency Min (duration of activity; tachycardia) ([2]; 10 mg/kg) [min] | Heart frequency Δ % (percentage variation; tachycardia) ([2]; 10 mg/kg) [%] | EC50 [3] [µM] | EC50 [4] [µM] | Heart frequency Min (duration of activity; tachycardia) ([2]; 5 mg/kg) [min] | Heart frequency Δ % (percentage variation; tachycardia) ([2]; 5 mg/kg) [%] | Inotropy Min (duration of activity) ([2]; 10 mg/kg) [min] | Inotropy Δ % (percentage variation of dLVP/dtmax) ([2]; 10 mg/kg) [%] | Inotropy Min (duration of activity) ([2]; 5 mg/kg) [min] | Inotropy Δ % (percentage variation of dLVP/dtmax) ([2]; 5 mg/kg) [%]
1 | Cc1cccc2c1N=C1NC(=O)[C@@H](C)N1C2 [D-1,5-dihydro-3,9-dimethylimidazo[2,1-b]-quinazolin-2(3H)-one hydrochloride] | 26 |  |  | 32 | 3 |  |  |  |  |  | 
2 | C[C@@H]1C(=O)NC2=Nc3cccc(Cl)c3CN21.Cl [D-6-chloro-1,5-dihydro-3-methyl-imidazo[2,1-b]quinazolin-2(3H)-one hydrochloride] |  |  |  |  |  | 115 | 28 |  |  | 145 | 93
3 | Cc1ccc2c(c1)CN1C(=N2)NC(=O)[C@@H]1C [L-1,5-Dihydro-3,7-dimethyl-imidazo[2,1-b]quinazolin-2(3H)-one hydrochloride] | 33 |  |  | 77 | 22 |  |  |  |  |  | 
4 | Cc1cccc2c1N=C1NC(=O)[C@H](C)N1C2 [L-1,5-dihydro-3,9-dimethylimidazo[2,1-b]quinazolin-2(3H)-one] | 49 | 100 | 16 | 60 | 18 |  |  | 120 | 43 |  | 
5 | Cc1cccc2c1CN1C(=N2)NC(=O)[C@@H]1CO [L-1,5-dihydro-3-hydroxymethyl-6-methyl-imidazo[2,1-b]quinazoline-2(3H)-onehydrochloride] | 14 |  |  |  |  |  |  |  |  |  | 

The remaining compounds from weak to strong by EC50 [1], led by results:

Row | EC50 [1] [µM] | Heart frequency Min (duration of activity; tachycardia) ([2]; 10 mg/kg) [min] | Heart frequency Δ % (percentage variation; tachycardia) ([2]; 10 mg/kg) [%] | EC50 [3] [µM] | EC50 [4] [µM] | Heart frequency Min (duration of activity; tachycardia) ([2]; 5 mg/kg) [min] | Heart frequency Δ % (percentage variation; tachycardia) ([2]; 5 mg/kg) [%] | SMILES | Inotropy Min (duration of activity) ([2]; 10 mg/kg) [min] | Inotropy Δ % (percentage variation of dLVP/dtmax) ([2]; 10 mg/kg) [%] | Inotropy Min (duration of activity) ([2]; 5 mg/kg) [min] | Inotropy Δ % (percentage variation of dLVP/dtmax) ([2]; 5 mg/kg) [%]
6 | 6.2 |  |  | 11 | 0.93 |  |  | Cc1cccc2c1CN1C(=N2)NC(=O)[C@@H]1C [L-1,5-dihydro-3,6-dimethylimidazo[2,1-b]-quinazoline-2(3H)-one hydrochloride] |  |  |  | 
7 | 3.4 |  |  | 19 | 3.1 |  |  | Cc1ccc2c(c1)CN1C(=N2)NC(=O)[C@H]1C [D-1,5-dihydro-3,7-dimethylimidazo[2,1-b]-quinazolin-2(3H)-one hydrochloride] |  |  |  | 
8 | 2.3 | 480 | 63 | 2.2 | 0.19 |  |  | Cc1cccc2c1CN1C(=N2)NC(=O)[C@H]1C.Cl [D-1,5-dihydro-3,6-dimethylimidazo[2,1-b]-quinazolin-2(3H)-one hydrochloride] | 440 | 82 |  | 
